The record followed here is PubChem BioAssay AID504765 (Sanford-Burnham Center for Chemical Genomics, 2011).

Calls of active or inactive are those of the source. No rule for the calls is given here. A value given as a limit tells only on which side of the number the result lay.

The target in the experiment is glucose-6-phosphate dehydrogenase-6-phosphogluconolactonase (Plasmodium falciparum 3D7). The experiment in a line: PfG6PD inhibitor potency, dose response, biochemical, fluorescence intensity (AID 504765). The conditions noted are these: Recombinant PfG6PD enzyme, fluorescence intensity (NADPH).

Consider `Cc1c(Cl)c([N+](=O)[O-])nn1Cc1ccc(C(=O)N/N=C\c2cccc(Br)c2)o1`, for which the IC50 (in general, the concentration that inhibits the measured activity by half) is 9.37 µM.
The same measure for `Clc1ccc2nc(-c3ccc4c(c3)OCO4)cn2c1`: “inactive”; for `CNS(=O)(=O)c1ccc(-c2ccc(C=C3C(=O)NC(=O)NC3=O)o2)cc1`: 8.75 µM.
The same measure for `COc1ccc(N2C(=O)/C(=C/c3cccs3)NC2=S)cc1`: “inactive”.
In the case of `CC(=O)Nc1ccc2sn(-c3ccccc3)c(=O)c2c1` it was 2.53 µM.
For `CN(C)c1ccc(C=c2c3cc(O)ccc3n3c2cc(-c2ccccc2)[n+]3C)cc1`, the half-inhibitory concentration (IC50) is 9.89 µM.
The same measure for `O=c1c2cc([N+](=O)[O-])ccc2sn1-c1ccccc1`: 5.27 µM; for `Cc1ccc2nc(-c3ccc(NC(=S)NC4CC(C)(C)NC(C)(C)C4)cc3)sc2c1`: 2.39 µM; for `COc1ccc(/C=C/c2nc3ccccc3n2Cc2ccc(OC)c(OC)c2)cc1`: “inactive”.
In the case of `CCN=c1scc(C)n1/N=C/c1ccc(O)c(O)c1O` it was 6.91 µM; in that of `Cc1nnc(N/N=C\c2ccc(-c3cccc(C(=O)O)c3)o2)n1N`, 4.75 µM; in that of `O=c1[nH]nc(CNc2ccc(O)cc2)c2ccccc12`, “inactive”.
Turning to `CCn1c2ccccc2c2cc(/C=N/n3cn[nH]c3=S)ccc21`, the IC50 is 9.81 µM.
The same measure for `COc1cccc(C2(c3cccc(OC)c3)CC2C(=O)Nc2ccc(F)cc2)c1` (stereo unspecified): 10.3 µM.
For the compound `COC(=O)CCC(=O)OC1(C)C(=O)C2=CN(C3CC3)C(c3ccc(OC)cc3)=CC2=C(Br)C1=O` (stereo unspecified), the IC50 was 2.46 µM.
Turning to `COc1ccccc1N1CSC2=C(C#N)C(c3ccc(SC)cc3)CC(=O)N2C1` (stereo unspecified), the IC50 was 10.6 µM.
The same measure for `CCOC(=O)c1c2ccc(OCC(=O)NN)cc2n2ccccc12`: 15.3 µM; for `O=C(CNC(=O)c1ccccc1)NCC(=O)OCC(=O)c1ccc([N+](=O)[O-])cc1`: “inactive”; for `O=C1C=CC(=O)N1c1ccc(N2CCCCC2)cc1`: 15.6 µM.
In the case of `O=C1/C(=C\c2ccc([N+](=O)[O-])cc2)CS(=O)(=O)C/C1=C/c1ccc([N+](=O)[O-])cc1`, the half-maximal inhibitory concentration (IC50) is 2.95 µM.
As for `COc1cc(CN2CCN(CCCc3ccccc3)C(CCO)C2)cc(OC)c1O` (stereo unspecified), the IC50 is 7.68 µM.
The same measure for `O=C(COC(=O)c1ccc2c(c1[N+](=O)[O-])C(=O)c1ccccc1C2=O)NC1CC1`: 16.4 µM; for `O=c1[nH]c2ccc(NCc3ccccc3OCc3ccc(Cl)cc3)cc2[nH]1`: > 80 µM (inactive).
In the case of `O=[N+]([O-])c1ccc2c(c1)-c1ccccc1C2O` (stereo unspecified) it was 2.46 µM.
Regarding `Cc1ccnc(-n2sc3ccccc3c2=O)n1`, the IC50 is 11.7 µM.
The same measure for `O=C(COc1ccccc1F)OCC(=O)c1ccc([N+](=O)[O-])cc1`: 12.4 µM.
The same measure for `CCn1c(SCc2nc3scc(-c4ccccc4)c3c(=O)[nH]2)nnc1-c1cccs1`: 17.3 µM; for `Nn1c(CSc2nc3ccccc3o2)nnc1CSc1nc2ccccc2o1`: 11.5 µM.
In the case of `Nc1ccc2c3c(cccc13)-c1ccccc1-2` it was “inactive”.
`CCn1c(SCC(=O)Nc2ccccc2OC)nnc1-c1cnccn1`: the IC50 result was “inactive”.
Take `COC(=O)C1=C(C(=O)OC)SC2(S1)C(C(=O)OC)=C(C(=O)OC)Sc1c2ssc1=O`: the IC50 is 1.4 µM.
In the case of `CCc1ccc(OCC(=O)N/N=C/c2cc([N+](=O)[O-])ccc2N2CCOCC2)cc1`, the IC50 was 8.3 µM.
On to `CN(C)S(=O)(=O)c1cccc(-n2sc3ccccc3c2=O)c1`, for which the IC50 was 2.08 µM.
The same measure for `O=c1c2ccccc2sn1-c1ccc(Cl)cc1`: 2.83 µM.
The same measure for `O=C1CCC[C@@H]2[C@@H](Cc3ccccc3)[C@H](N3CCN(c4ccccc4)CC3)C[C@@H]3CCN1[C@@H]32`: 9.43 µM; for `CCn1c(=O)n(CC)c2cc(N3CCCC3)c(NC(=O)c3cccc(C)c3)cc21`: “inactive”; for `Cn1cc(S(=O)(=O)CC(=O)N2CCc3ccccc32)c2ccccc21`: “inactive”.
In the case of `O=c1[nH]c2ccccc2n2c(-c3ccccc3)nnc12` it was 1.65 µM; in that of `COc1cc(SSc2cc(OC)cc([N+](=O)[O-])c2N)c(N)c([N+](=O)[O-])c1`, 4.2 µM.
With `COc1cc(N=c2ssnc2Cl)cc(OC)c1`, the IC50 was 13.2 µM.
The same measure for `O=C1C(=Cc2cccc(O)c2O)SC(=S)N1CCCN1CCOCC1`: 14.1 µM; for `Cc1cc(N=NC(=O)c2ccccc2O)c2ccccc2c1O`: “inactive”; for `O=c1[nH]sc2cc(F)ccc12`: 9.86 µM.
For the compound `O=c1c2ccccc2sn1-c1ccc(S(=O)(=O)N2CCCC2)cc1`, the half-inhibitory concentration (IC50) was 6.88 µM.
The same measure for `NS(=O)(=O)c1ccc(N/N=C/c2ccc(O)c(O)c2O)c([N+](=O)[O-])c1`: 5.7 µM; for `COc1cc(Sc2ccc(C)cc2)c(OC)cc1N`: 7.04 µM; for `COc1cc(/C=N/n2cc(-c3ccccc3)[nH]c2=S)cc(OC)c1O`: 19.6 µM.
In the case of `Cc1ccc(-c2csc(NC(=O)c3ccccc3F)c2C(=O)O)cc1` it was 8.06 µM; in that of `CC(Cc1ccc(O)c(O)c1)C(C)Cc1ccc(O)c(O)c1` (stereo unspecified), “inactive”.
In the case of `Cc1cc(NC(=O)c2oc3ccccc3c2C)ccc1-n1cnnn1` it was 4.54 µM.
With `Cc1nnc(N/N=C/c2ccc(-c3ccccc3F)o2)n1N`, the IC50 was 16.9 µM.
With `O=[N+]([O-])c1ccc(Sc2cccc3cccnc23)c2cccnc12`, the half-inhibitory concentration (IC50) is 16.5 µM.
The same measure for `Cc1ccccc1-n1sc2cc(F)ccc2c1=O`: 2.15 µM.
The same measure for `O=C(COc1cccc2ccccc12)Nc1ccc(Cl)cc1C(=O)O`: 13.5 µM.
In the case of `CC(=O)Nc1cc(OC(C)=O)c2nonc2c1OC(C)=O` it was 11.9 µM; in that of `CCOC(=O)Cc1cc(=O)n2[nH]c(C(C)(C)C)cc2n1`, 7.04 µM.
On to `CC1(C)Cc2c(sc3nc4n(-c5ccccc5)c(=O)c(CCC(=O)O)nn4c(=O)c23)CO1`, for which the IC50 is 4.1 µM.
In the case of `Cc1cc(O)c(C(C)C)cc1N=Cc1ccccc1[N+](=O)[O-]` it was 3.44 µM; in that of `O=C(Nc1nnc(S(=O)(=O)N2CCCCC2)s1)c1ccc(Cl)cc1`, 6.01 µM; in that of `CC(=O)Nc1ccc(S(=O)(=O)NNc2cccc(C)c2)cc1`, “inactive”.
In the case of `c1cncc(CNc2ccc3c(c2)OCO3)c1` it was 13.9 µM.
The same measure for `Cc1cc(C)c[n+](C2=C([O-])c3ccccc3C(=O)/C2=N\S(=O)(=O)c2cccs2)c1`: 15.3 µM; for `Oc1ccc(C23CC4CC(CC(C4)C2)C3)cc1O`: “inactive”; for `c1ccc(-c2cn3c(n2)CCc2ccc4cccnc4c2-3)cc1`: 8.54 µM.
Take `N#Cc1ccc2sn(-c3ccccc3)c(=O)c2c1`: the IC50 is 3.47 µM.
`CCNc1nc(NC(C)C)nc(NS(=O)(=O)c2ccc(Cl)cc2)n1`: the IC50 was 6.54 µM.
Consider `Oc1ccc(/C=N/N=C(c2ccccc2)c2ccccc2)c(O)c1O`, for which the IC50 is 13.6 µM.
The same measure for `COc1cc(/C=C/C(=O)c2ccc([N+](=O)[O-])o2)ccc1O`: 5.16 µM.
The same measure for `CCN(CC)c1ccc(NC(=O)c2ccccc2Br)cc1S(=O)(=O)Nc1ccccc1OC`: “inactive”; for `CN(C)c1ccc2nc3ccc(=O)cc-3sc2c1`: 13.2 µM.
The same measure for `COc1ccc(C(=O)c2c(C(F)(F)F)oc3c2C(=O)c2ccccc2C3=O)cc1OC`: “inactive”.
